According to patent US11613542B2, “Sulfonylureas and sulfonylthioureas as NLRP3 inhibitors” (Inflazome Limited, priority 2017, dated 2023):
Where a name gives a salt, the structure may show the parent alone.

Molecular target: NLRP3 (Homo sapiens, UniProt Q96P20)
Assay: THP-1 cells pyroptosis assay
Type: cell-based
Design: Seed THP-1 cells (25,000 cells/well) containing 1.0 μg/ml LPS; host or cells: THP-1 cells, LPS-primed, nigericin-stimulated
Details: THP-1 cells, 1.0 μg/ml LPS, compound 3 hrs, nigericin 5 μM 1 hr, resazurin readout; read-out: THP IC50
From the text: NLRP and Pyroptosis It is well established that the activation of NLRP3 leads to cell pyroptosis and this feature plays an important part in the manifestation of clinical disease (Yan-gang Liu et al., Cell Death &Disease, 2017, 8(2), e2579; Alexander Wree et al., Hepatology, 2014, 59(3), 898-910; Alex Baldwin et al., Journal of Medicinal Chemistry, 2016, 59(5), 1691-171; Ema Ozaki et al., Journal of Inflammation Research, 2015, 8, 15-27; Zhen Xie & Gang Zhao, Neuroimmunology Neuroinflammation, 2014, 1(2), 60-65; Mattia Cocco et al., Journal of Medicinal Chemistry, 2014, 57(24), 10366-10382; T. Satoh et al., Cell Death &Disease, 2013, 4, e644). Therefore, it is anticipated that inhibitors of NLRP3 will block pyroptosis, as well as the release of pro-inflammatory cytokines (e.g. […]) from the cell. THP-1 Cells: Culture and Preparation THP-1 cells (ATCC #TIB-202) were grown in RPMI containing L-glutamine (Gibco #11835) supplemented with imM sodium pyruvate (Sigma #S8636) and penicillin (100 units/ml)/streptomycin (0.1 mg/ml) (Sigma #P4333) in 10% Fetal Bovine Serum (FBS) (Sigma #Fo804). The cells were routinely passaged and grown to confluency (˜10^6 cells/ml). On the day of the experiment, THP-1 cells were harvested and resuspended into RPMI medium (without FBS). The cells were then counted and viability (>90%) checked by Trypan blue (Sigma #T8154). Appropriate dilutions were made to give a concentration of 625,000 cells/ml. To this diluted cell solution was added LPS (Sigma #L4524) to give a […] Final Assay Concentration (FAC). 40 μl of the final preparation was aliquoted into each well of a 96-well plate. The plate thus prepared was used for compound screening. THP-1 Cells Pyroptosis Assay The following method step-by-step assay was followed for compound screening. • 1. Seed THP-1 cells (25,000 cells/well) containing 1.0 μg/ml LPS in 40 μl of RPMI medium (without FBS) in 96-well, black walled, clear bottom cell culture plates coated with poly-D-lysine (VWR #734-0317) • 2. Add […] compound (8 points half-log dilution, with 10 μM top dose) or vehicle (DMSO 0.1% FAC) to the appropriate wells • 3. […] Add 5 μl nigericin (Sigma #N7143) (FAC 5 μM) to all wells • 5. […] At the end of the incubation period, spin plates at 300 xg for 3 mins and remove supernatant • 7. Then add 50 μl of resazurin (Sigma #R7017) (FAC 100μ M resazurin in RPMI medium without FBS) and incubate plates for a further 1-2 hrs at 37° C. and 5% CO2 • 8. Plates were read in an Envision reader at Ex 560 nm and Em 590 nm • 9. IC50 data is fitted to a non-linear regression equation (log inhibitor vs response-variable slope 4-parameters) [table]

Sequence of NLRP3 (Q96P20 whole entry): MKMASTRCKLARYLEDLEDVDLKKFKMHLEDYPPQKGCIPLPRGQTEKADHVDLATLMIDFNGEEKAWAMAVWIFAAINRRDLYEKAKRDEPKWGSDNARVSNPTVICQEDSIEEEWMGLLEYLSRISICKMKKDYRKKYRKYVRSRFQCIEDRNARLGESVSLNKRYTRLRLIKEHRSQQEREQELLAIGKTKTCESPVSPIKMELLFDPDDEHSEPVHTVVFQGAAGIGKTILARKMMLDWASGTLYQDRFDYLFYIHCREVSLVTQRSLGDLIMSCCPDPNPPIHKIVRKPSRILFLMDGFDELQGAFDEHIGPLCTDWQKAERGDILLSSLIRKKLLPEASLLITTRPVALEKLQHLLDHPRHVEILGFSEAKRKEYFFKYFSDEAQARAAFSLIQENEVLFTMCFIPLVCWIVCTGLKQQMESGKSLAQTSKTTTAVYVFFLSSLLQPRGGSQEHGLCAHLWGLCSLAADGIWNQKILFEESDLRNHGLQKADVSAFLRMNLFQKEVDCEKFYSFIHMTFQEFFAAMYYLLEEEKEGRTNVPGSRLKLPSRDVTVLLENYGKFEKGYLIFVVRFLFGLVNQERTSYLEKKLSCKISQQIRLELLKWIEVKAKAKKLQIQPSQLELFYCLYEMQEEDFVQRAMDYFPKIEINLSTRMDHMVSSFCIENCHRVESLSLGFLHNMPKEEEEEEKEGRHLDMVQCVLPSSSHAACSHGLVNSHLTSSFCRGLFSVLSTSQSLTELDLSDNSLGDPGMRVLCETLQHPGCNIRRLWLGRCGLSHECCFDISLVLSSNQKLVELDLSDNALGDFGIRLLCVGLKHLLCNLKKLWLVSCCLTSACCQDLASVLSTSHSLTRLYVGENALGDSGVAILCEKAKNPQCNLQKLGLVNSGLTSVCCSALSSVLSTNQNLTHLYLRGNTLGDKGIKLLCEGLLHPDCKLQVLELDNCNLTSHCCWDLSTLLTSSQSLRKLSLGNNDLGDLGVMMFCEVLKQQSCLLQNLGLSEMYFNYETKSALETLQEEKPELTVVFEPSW

| Compound | IC50 [nM] |
| --- | --- |
| CN1CCC(n2ccc(S(=O)(=O)NC(=O)Nc3c4c(cc5c3CCC5)CCC4)n2)CC1 [Example 31, N-((1,2,3,5,6,7-Hexahydro-s-indacen-4-yl)carbamoyl)-1-(1-methylpiperidin-4-yl)-1H-pyrazole-3-sulfonamide] | < 2560 |
| CC(C)c1cc(F)cc(C(C)C)c1NC(=O)NS(=O)(=O)c1cc(CN(C)CCO)n(C)n1 [Example 123, N-((4-Fluoro-2,6-diisopropylphenyl)carbamoyl)-5-(((2-hydroxyethyl)(methyl)amino)methyl)-1-methyl-1H-pyrazole-3-sulfonamide] | < 640 |
| CC(C)c1cc(Cl)cc(C(C)C)c1NC(=O)NS(=O)(=O)c1cc(CN2CCOCC2)n(C)n1 [Example 127, N-((4-Chloro-2,6-diisopropylphenyl)carbamoyl)-1-methyl-5-(morpholinomethyl)-1H-pyrazole-3-sulfonamide, sodium salt] | < 2560 |
| CC(C)c1cc(F)cc(C(C)C)c1NC(=O)NS(=O)(=O)c1cc(C(=O)N2CCC2)n(C(C)C)n1 [Example 130, 5-(azetidine-1-carbonyl)-N-((4-fluoro-2,6-diisopropylphenyl)carbamoyl)-1-isopropyl-1H-pyrazole-3-sulfonamide] | < 640 |
| CC(C)c1ccc(-c2cncnc2)cc1NC(=O)NS(=O)(=O)c1cc(C(=O)N(C)C)n(C)n1 [Example 134, 3-(N-((2-Isopropyl-5-(pyrimidin-5-yl)phenyl)carbamoyl)sulfamoyl)-N,N,1-trimethyl-1H-pyrazole-5-carboxamide, sodium salt] | < 2560 |
| CC(C)c1ccc(-c2cnn(C)c2)cc1NC(=O)NS(=O)(=O)c1cc(C(=O)N(C)C)n(C)n1 [Example 136, 3-(N-((2-Isopropyl-5-(1-methyl-1H-pyrazol-4-yl)phenyl)carbamoyl)sulfamoyl)-N,N,1-trimethyl-1H-pyrazole-5-carboxamide, sodium salt] | < 2560 |

Continued, values first:

| IC50 [nM] | Compound |
| --- | --- |
| < 2560 | O=C(Nc1c2c(cc3c1CCC3)CCC2)NS(=O)(=O)c1ccn(Cc2ncccn2)n1 [Example 22, N-((1,2,3,5,6,7-Hexahydro-s-indacen-4-yl)carbamoyl)-1-(pyrimidin-2-ylmethyl)-1H-pyrazole-3-sulfonamide] |
| < 2560 | CN(C)CCCn1ccc(S(=O)(=O)NC(=O)Nc2c3c(cc4c2CCC4)CCC3)n1 [Example 32, 1-(3-(Dimethylamino)propyl)-N-((1,2,3,5,6,7-hexahydro-s-indacen-4-yl)carbamoyl)-1H-pyrazole-3-sulfonamide] |
| < 2560 | O=C(Nc1c2c(cc3c1CCC3)CCC2)NS(=O)(=O)c1ccn(-c2ccccn2)n1 [Example 119, N-((1,2,3,5,6,7-Hexahydro-s-indacen-4-yl)carbamoyl)-1-(pyridin-2-yl)-1H-pyrazole-3-sulfonamide, sodium salt] |
| < 2560 | O=C(Nc1c2c(cc3c1CCC3)CCC2)NS(=O)(=O)c1ccn(-c2nccs2)n1 [Example 120, N-((1,2,3,5,6,7-Hexahydro-s-indacen-4-yl)carbamoyl)-1-(thiazol-2-yl)-1H-pyrazole-3-sulfonamide, sodium salt] |
| < 2560 | O=C(Nc1c2c(cc3c1CCC3)CCC2)NS(=O)(=O)c1ccn(-c2cccnc2)n1 [Example 121, N-((1,2,3,5,6,7-Hexahydro-s-indacen-4-yl)carbamoyl)-1-(pyridin-3-yl)-1H-pyrazole-3-sulfonamide] |
| < 2560 | COCCN(C)Cc1cc(S(=O)(=O)NC(=O)Nc2c(C(C)C)cc(F)cc2C(C)C)nn1C [Example 125, N-((4-Fluoro-2,6-diisopropylphenyl)carbamoyl)-5-(((2-methoxyethyl)(methyl)amino)methyl)-1-methyl-1H-pyrazole-3-sulfonamide, sodium salt] |
| < 2560 | Cn1nc(S(=O)(=O)NC(=O)Nc2c3c(cc4c2CCC4)CCC3)cc1CN1CCOCC1 [Example 128, N-((1,2,3,5,6,7-Hexahydro-s-indacen-4-yl)carbamoyl)-1-methyl-5-(morpholinomethyl)-1H-pyrazole-3-sulfonamide] |
